Source: patent US5399565A, “Pyrazolidinone CCK and gastrin antagonists and pharmaceutical formulations therof” (priority 1993, dated 1995)

Experiments:
brain CCK receptor = target: T1, brain CCK receptor (Mus musculus, UniProt P56481); test: CCK receptor binding, mouse brain membranes (125I-CCK-8 sulfate); conditions: for IC50: mouse brain membranes, read-out: Brain IC50; for inhibition at 10 µM / inhibition at 1 µM: read-out: Brain Percent Inhibition
T1 construct: from tissue; host or cells: forebrain membranes of male CF-1 mice
T1 sequence (P56481 1-453): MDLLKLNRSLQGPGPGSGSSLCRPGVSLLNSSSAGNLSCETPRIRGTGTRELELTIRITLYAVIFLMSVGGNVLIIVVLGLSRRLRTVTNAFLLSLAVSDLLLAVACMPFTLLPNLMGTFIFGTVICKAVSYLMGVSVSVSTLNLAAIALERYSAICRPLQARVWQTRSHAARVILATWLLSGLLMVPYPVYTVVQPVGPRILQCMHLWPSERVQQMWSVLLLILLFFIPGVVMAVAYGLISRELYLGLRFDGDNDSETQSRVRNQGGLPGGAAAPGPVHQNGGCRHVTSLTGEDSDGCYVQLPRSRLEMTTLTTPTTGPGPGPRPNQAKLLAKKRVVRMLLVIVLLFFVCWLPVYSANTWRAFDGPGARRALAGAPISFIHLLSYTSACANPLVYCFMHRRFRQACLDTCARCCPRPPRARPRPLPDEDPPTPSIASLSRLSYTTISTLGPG
Protocol: Brain CCK receptor binding was performed using mouse brain membranes according to the method of Chang and Lotti (Proc. Natl. Acad. Sci. 83: 4923-4926, 1986). Male CF-1 mice, 23-25 g were sacrificed by cervical dislocation, the forebrain removed and placed in ice cold 50 mM Tris buffer, pH 7.4. The tissue was homogenized in 100 volumes of the Tris buffer with a Brinkman Polytron or Tekmar Tissumizer and then centrifuged at 40,000 g for 10 min. Pellets were resuspended in Tris buffer, centrifuged as above and then resuspended in 100 volumes of assay buffer, pH 6.5 (20 mM N-2-hydroxyethyl-piperazine-N'-2-ethane sulfonic acid (HEPES), 1 mM ethylene glycol his (2-aminoethyl ether-N,N,N',N'-tetraacetic acid) (EGTA), 5 mM MgCl2, 130 mM NaCl, and 0.25 mg/ml bacitracin). The binding assay consisted of 50 μL of compound (or buffer for total binding), 50 μL of ^125 I-CCK-8 sulfate (20 pM) (Amersham IM- 159), 200 μL of assay buffer and 200 μL of homogenate (80-120 μg protein). The samples were incubated at room temperature (25°) for 2 hours, and they were then filtered through GF/B glass fiber filters (soaked in wash buffer for 2 hours before use) using a 48 well Brandel cell harvester designed for receptor binding. The filters were washed twice with 3 ml of 50 mM Tris buffer, pH 7.4, containing 0.01% BSA and then counted for radioactivity in plastic tubes with a Micromedic 10/600 automatic gamma counter.
Compounds were dissolved in dimethyl sulfoxide (DMSO) at a concentration of 10 mM and then further diluted with assay buffer. The concentration of DMSO in the incubation was 0.1% or less and had no effect on the assay at that level. IC-50 values of displacement curves were determined using 7 concentrations of compound and were calculated using the ALLFIT computer program of DeLean, Munson and Rodbard (Am. J. Physiol. 235: E97-E102, 1978). Non-specific binding was determined as the displacement of the radioligand by 100 nM CCK-8 sulfate.

[1] = target: T2, peripheral type CCK receptors in rat pancreas (Rattus norvegicus, UniProt P30551); test: Binding to peripheral type CCK receptors in rat pancreas (3H-L-364,718)
T2 construct: Pancreas was obtained from male Sprague-Dawley rats; from tissue; host or cells: pancreas membranes of male Sprague-Dawley rats
T2 sequence (P30551 1-444): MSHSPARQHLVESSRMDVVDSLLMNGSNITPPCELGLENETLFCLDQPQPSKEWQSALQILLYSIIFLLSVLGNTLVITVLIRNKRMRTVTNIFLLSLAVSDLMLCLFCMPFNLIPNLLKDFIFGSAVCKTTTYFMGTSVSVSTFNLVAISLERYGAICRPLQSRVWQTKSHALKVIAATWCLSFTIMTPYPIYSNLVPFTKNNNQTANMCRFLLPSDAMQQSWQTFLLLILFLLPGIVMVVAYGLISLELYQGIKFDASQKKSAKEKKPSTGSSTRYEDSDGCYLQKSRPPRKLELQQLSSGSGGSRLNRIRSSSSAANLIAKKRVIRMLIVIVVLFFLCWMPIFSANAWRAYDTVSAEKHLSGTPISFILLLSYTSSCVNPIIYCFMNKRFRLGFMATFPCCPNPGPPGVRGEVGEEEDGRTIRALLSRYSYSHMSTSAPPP
Protocol: Binding to peripheral type CCK receptors in rat pancreas was done according to the method of Chang et al. (Mol. Pharmacol. 30: 212-217, 1986) using ^3 H-L364, 718. Pancreas was obtained from male Sprague-Dawley rats, 150-200 g, after decapitation, and dissected free from adipose and connective tissue. The tissue was homogenized in 30 volumes of 50 mM Tris buffer, pH 7.4 and centrifuged at 40,000 g for 10 min. The tissue pellet was washed by resuspension and centrifugation as described above. The final pellet was suspended in 500 volumes of assay buffer (50 mM Tris buffer, pH 7.4, 5 mM MgCl2, 0.14 mg/ml bacitracin, and 5 mM dithiothreitol) to give a protein concentration of 30-60 μg/200 μl . Reagent volumes for the assay were the same as those used for CCK binding to brain membranes. Tritium labeled L-364,718 (Dupont NEN, NET-971) was used as the ligand at a concentration of 0.4-0.6 nM. The samples were incubated 1 hour at room temperature and then filtered as described for the CCK-brain receptor. Scintillation cocktail was added to the filters which were counted for radioactivity using a Micromedic Taurus automatic liquid scintillation counter.
Compound samples were prepared and IC-50 values were determined as described for the CCK-brain experiments. Non-specific binding was that amount left bound to the filters after adding 100 nM L-364,718.

[2] = read-out: Pancreas Percent Inhibition

Compound | IC50 (brain CCK receptor) [nM] | inhibition at 10 µM [1, 2] [%] | inhibition at 10 µM (brain CCK receptor) [%] | other results
O=C1NN(C(=O)Nc2ccc(Br)c(C(F)(F)F)c2)[C@H](c2ccccc2)[C@H]1c1ccccc1 (relative stereo) [Example 45] | 22 |  |  | IC50 ([1]; rat pancreas): 160 nM
O=C1NN(C(=S)Nc2cccc(Cl)c2Cl)[C@H](c2ccccc2)[C@H]1c1ccccc1 (relative stereo) [Example 64] | 5300 |  |  | inhibition at 1 µM ([1]; at 1 μM, read-out: Pancreas Percent Inhibition): 34%
O=C1CC(c2ccc(-c3ccccc3)cc2)N(C(=O)Nc2cccc(Cl)c2Cl)N1 (stereo not drawn) [Example 68] | 4300 | 70 |  | 
O=C1NN(C(=O)Nc2cc(C(F)(F)F)ccc2Cl)[C@H](c2ccccc2)[C@H]1c1ccccc1 (relative stereo) [Example 57] | 1000 | 45 |  | 
O=C1NN(C(=O)Oc2ccccc2)[C@@H](c2ccccc2)[C@@H]1c1ccccc1 (relative stereo) [Example 79] |  | 9 | 43 | 
Cc1cccc(NC(=O)N2NC(=O)[C@H](c3ccccc3)[C@H]2c2ccccc2)c1 (relative stereo) [Example 41] |  | 21 | 57 | 
O=C1NN(C(=O)NCc2ccccc2Cl)[C@@H](c2ccccc2)[C@@H]1c1ccccc1 (relative stereo) [Example 98] |  | 33 | 74 | 
O=C1NN(C(=O)Nc2cccc(OCc3ccccc3)c2)[C@H](c2ccccc2)[C@H]1c1ccccc1 (relative stereo) [Example 44] | 260 | 67 |  | 
O=C1NN(C(=O)NCCc2ccccc2)[C@@H](c2ccccc2)[C@@H]1c1ccccc1 (relative stereo) [Example 105] | 490 | 43 |  | 
O=C1NN(C(=O)Nc2ccc(Cl)cc2)[C@@H](c2ccccc2)[C@@H]1c1ccccc1 (relative stereo) [Example 18] | 93 | 22 |  | 
O=C1NN(C(=O)Nc2ccncc2)[C@@H](c2ccccc2)[C@@H]1c1ccccc1 (relative stereo) [Example 89] |  | 21 | 34 | 
O=C1NN(C(=O)c2ccc(C(F)(F)F)cc2)[C@H](c2ccccc2)[C@H]1c1ccccc1 (relative stereo) [Example 74] |  | 15 | 23 | 
O=C1NN(C(=O)Nc2ccc(Cl)c([N+](=O)[O-])c2)[C@H](c2ccccc2)[C@H]1c1ccccc1 (relative stereo) [Example 48] | 80 | 98 |  | 
Cc1ccc(NC(=O)N2NC(=O)[C@@H](c3ccccc3)[C@@H]2c2ccccc2)cc1 (relative stereo) [Example 25] | 210 | 14 |  | 
O=C1NN(C(=O)NCCc2ccc(Cl)cc2)[C@@H](c2ccccc2)[C@@H]1c1ccccc1 (relative stereo) [Example 107] |  | 61 | 86 | 
CCc1ccc(NC(=O)N2NC(=O)[C@@H](c3ccccc3)[C@@H]2c2ccccc2)cc1 (relative stereo) [Example 26] | 75 | 47 |  | 
CN(C)c1ccc(C2C(c3ccccc3)C(=O)NN2C(=O)Nc2ccc(C(F)(F)F)cc2)cc1 (stereo not drawn) [Example 113] |  | 21 |  | inhibition at 1 µM (brain CCK receptor): 25%

Compound | IC50 (brain CCK receptor) [nM] | inhibition at 10 µM [1, 2] [%] | inhibition at 10 µM (brain CCK receptor) [%] | other results
O=C1NN(C(=O)NCc2ccc(Cl)cc2)[C@@H](c2ccccc2)[C@@H]1c1ccccc1 (relative stereo) [Example 100] | 2200 | 78 |  | 
O=C1NN(C(=S)Nc2ccc(C(F)(F)F)cc2)[C@H](c2ccccc2)[C@H]1c1ccccc1 (relative stereo) [Example 62] | 2200 | 37 |  | 
O=C1NN(C(=O)Nc2ccc(Br)cc2)C(Cc2ccccc2)C1c1ccccc1 (stereo not drawn) [Example 72] |  | 22 | 88 | 
O=C1NN(c2nc3ccccc3s2)[C@@H](c2ccccc2)[C@@H]1c1ccccc1 (relative stereo) [Example 84] |  | 26 | 70 | 
CN(C(=O)N1NC(=O)[C@@H](c2ccccc2)[C@@H]1c1ccccc1)c1ccc(Cl)cc1 (relative stereo) [Example 19] |  | 36 | 68 | 
O=C1NN(C(=O)Nc2ccc3c(c2)OCO3)[C@H](c2ccccc2)[C@H]1c1ccccc1 (relative stereo) [Example 52] |  | 21 |  | inhibition at 1 µM (brain CCK receptor): 60%
COc1cccc(NC(=O)N2NC(=O)[C@H](c3ccccc3)[C@H]2c2ccccc2)c1 (relative stereo) [Example 42] | 780 | 37 |  | 
C[C@H](NC(=O)N1NC(=O)C(c2ccccc2)C1c1ccccc1)c1ccccc1 (stereo partly drawn) [Example 101] | 1300 | 7 |  | 
O=C1NN(C(=O)Cc2cccc(C(F)(F)F)c2)[C@H](c2ccccc2)[C@H]1c1ccccc1 (relative stereo) [Example 76] |  | 4 | 55 | 
O=C1NN(C(=O)Nc2cccc3ccccc23)[C@@H](c2ccccc2)[C@@H]1c1ccccc1 (relative stereo) [Example 90] |  | 63 |  | inhibition at 1 µM (brain CCK receptor): 45%
CC(C)Oc1cccc(NC(=O)N2NC(=O)[C@H](c3ccccc3)[C@H]2c2ccccc2)c1 (relative stereo) [Example 43] | 230 | 24 |  | 
O=C1NN(c2nc3ccccc3o2)[C@@H](c2ccccc2)[C@@H]1c1ccccc1 (relative stereo) [Example 87] |  | 23 | 47 | 
CCCc1ccc(NC(=O)N2NC(=O)[C@@H](c3ccccc3)[C@@H]2c2ccccc2)cc1 (relative stereo) [Example 27] | 230 | 60 |  | 
O=C1NN(C(=S)Nc2c(F)c(F)c(F)c(F)c2F)[C@H](c2ccccc2)[C@H]1c1ccccc1 (relative stereo) [Example 65] |  | 37 | 50 | 
O=C1NN(C(=O)NCc2cccc(Cl)c2)[C@@H](c2ccccc2)[C@@H]1c1ccccc1 (relative stereo) [Example 99] | 3300 | 86 |  | 
O=C1NN(C(=O)Nc2ccc(Cl)cc2Cl)[C@H](c2ccccc2)[C@H]1c1ccccc1 (relative stereo) [Example 55] | 600 | 47 |  | 
